Results from US20070161609A1, “Use of mitochondrially targeted antioxidant in treatment and prevention of drug-induced liver disease” (priority 2006, published 2007).
Entries after “also recorded” stand apart in the source; their conditions may differ. Like-named read-outs stand apart in the source and are kept apart here.

Assays:
[1] = tested on: immortalized hepatocytes (Fa2N-4 or Ea1C-35); assay: Reactive oxygen species in immortalized hepatocytes; format: cell-based; conditions: for ROS formation: hepatocytes intoxicated with e.g. paracetamol (10 mM for 2 hours), DDC or BSO, simultaneous treatment at EC50 concentrations
Protocol: Tested hepatocytes are grown in 96-well plates in culture medium (DMEM supplemented with 10% FCS, Gibco) to 80% confluency in the presence of paracetamol, subsequently washed with HBSS and incubated in the dark with DHE (10-50 μM) for 10 minutes at 37° C. Cells are then washed twice with Hank's balanced salt solution (HBSS, Gibco) to remove excess dye. Fluorescence is monitored in a fluorescence microscope (Olympus, Hamburg, Germany).
To determineDCF fluorescence in a microplate reader (Tecan, Crailsheim, Germany), immortalized hepatocytes are grown in 96-well plates to 80% confluency in presence of paracetamol. The cells are then washed twice with Hank's balanced salt solution (HBSS, Gibco) and incubated in the dark with CM-H2DCFDA (8.5 μM) dissolved in HBSS containing N-co-nitro-L-arginine methyl ester (L-NAME, 10 μM) for 10 minutes at 37° C. to prevent the formation of NO. After several washes with HBSS to remove excess dye, fluorescence is monitored by using 480 nm excitation and 540 nm emission wavelength. DCF fluorescence is standardized to the number of viable cells using the Alamar Blue test according to the manufacturer's instructions (Biosource, Nivelles, Belgium). […] The absorbance is then measured at the wavelength of 580 nm.
Optionally, ROS production can be assessed by flow cytometric analysis of CM-H2DCFDA stained cells. The cells intoxicated with paracetamol are detached and harvested by trypsinisation, collected by centrifugation and resuspended in HBSS at a concentration of 1×10^6 cells/ml. Cells are then loaded with 8.5 μM CM-H2DCFDA for 15 minutes in the dark at 37° C. before stimulation. The DCF fluorescence is monitored by analyzing 10,000 cells using 480 nm excitation and 540 nm emission wavelengths in a flow cytometer (Partec, Muenster, Germany).
The hepatocytes are then washed once with HBSS (Hanks' Balanced Salt Solution, Gibco) and incubated with MitoQ in concentration range of 0.5 to 10 μM or the respective amount of DMSO (Sigma). After 15 min DCF is added to the cells (final concentration of 8 μM) and cells are incubated with the dye for 10 min. After loading the media is removed and fresh HBSS is added containing MitoQ and CoCl2 (100 μM).
After 3 subsequent washing the cells are equilibrated in plates containing 1 ml of 50 mmol/L HEPES (pH 7.4), 135 mmol/L NaCl, 1 mmol/L CaCl2, 1 mmol/L MgCl2, 5 mmol/L KCl, 5.5 mmol/L glucose, and 5 μmol/L lucigenin as the electron acceptor. The light reaction between superoxide and lucigenin is detected using a chemiluminescence reader (Lumistar, BMG laboratories, Germany). The chemiluminescence signal is expressed as average counts per minute and normalized to cell number as determined by cell counter (Casy Technology Instrument, Schärfe-System, Germany).

[2] = tested on: mitochondria within isolated cells; conditions: in vitro; cited from earlier work
[3] = cited from earlier work; for gross signs of toxicity: fed in drinking water two or three days, 500 μM or 1 mM MitoQ or MitoS, 500 μM MitoVit E; for safety of long term feeding to mice: long term basis, potentially therapeutically effective concentrations within brain, heart, liver, muscle
[4] = tested on: carprofen- and DDC-intoxicated mice livers; assay: Hepatocyte damage in mouse liver upon 3 days exposure to carprofen in combination with DDC (histology); format: in vivo; conditions: carprofen 5 mg/kg + DDC 0.1% in diet, MitoQ 300 nmol/animal in PBS/1% DMSO
Text: Controls receive 300 μPBS only.

[5] = tested on: mice intoxicated with valproic acid; assay: Long term (three weeks) valproic acid intoxication, liver histology; format: in vivo, mouse; conditions: valproic acid 0.71% weight/volume for three weeks; 1.25 mg/kg daily i.p. or i.v.; compared to controls
Protocol: Chronic liver damage can be assessed in mice intoxicated with valproate (0.71% weight/volume) for up to 21 days when fatty degeneration of hepatocytes, activation of Kupffer cells, inflammation and hepatocyte necrosis can be detected (Raza M. 2000, Int J Tissue React., 22(1): 15-21).
In long term experiments by using mice intoxicated for three weeks with valproic acid (0.71% weight/volume), the presence (or absence) of cell damage in liver samples of treated animals is determined and compared to the corresponding control groups of animals.

[6] = tested on: hemoxygenase 1 (HO-1); assay: Western blot of hemoxygenase 1 expression in liver extracts of intoxicated mice; format: in vivo, mouse; conditions: densitometry
Protocol: To evaluate hemoxygenase 1 (HO-1) protein expression know to be induced by oxidative stress (Suematsu M. and Ishimura Y., 2000, Hepatology, 31(1): 3-6) standard western blot analysis is performed using protein extracts derived from paracetamol- (or carprofen) intoxicated mice treated simultaneously for 1day (or 3 days) with MitoQ (diluted in 1% DMSO in PBS), vitamin E or just vehicle itself (see protocols in Example 3).
(§1) Liver tissues are resuspended in ice-cold RIPA-buffer (50 mM Tris-HCl pH 7.4, 250 mM NaCl, 0.1% SDS, 1% deoxycholate, 1% NP-40) supplemented with 2 μg/ml leupeptin, 2 μg/ml pepstatin, 2 μg/ml aprotinin, 1 mM phenylmethylsulfonylfluoride (PMSF), and 2 mM dithiothreitol followed by homogenization through sonication (2 bursts of 5 seconds) on ice. After incubation for 20 minutes on ice, the lysates are cleared by two centrifugational steps in a microcentrifuge at 13,000 rpm for 15 minutes at 4° C. and the supernatants are collected. Protein concentrations are determined by the Bradford assay (Biorad) using bovine serum albumin as a standard. Equal amounts of protein (typically 10-30 μg) are separated on a 12% SDS-PAGE gel and transferred electrophoretically to a polyvinylidene diflouride (PVDF) membrane (Hybond-P, Amersham) through Semidry-blotting (TE 70, Amersham). […]

[7] = tested on: fatty acid binding protein (FABP); assay: Western blot of fatty acid binding protein in liver extracts of intoxicated mice; format: in vivo, mouse; conditions: drug-intoxicated (paracetamol or carprofen) animals; versus non intoxicated vehicle controls
Protocol: as §1, with “Amersham). The membrane is blocked for 1 hour at room temperature in blocking solution [5% milk in TBS-T (25 mM Tris-HCl pH 7.4, 137 mM NaCl, 3 mM KCl, comprising 0.1% Tween-20)] and incubated with the primary antibody solution (prepared in TBS-T/1% milk) at 4° C. overnight with agitation.” for “Amersham).”
Furthermore, the protein expression level(s) of fatty acid binding protein (FABP) representing a sensitive marker for hepatocyte damage (Monbaliu D. et al., 2005, Transplant Proc. 37(1):413-416) is determined.

[8] = tested on: alanine- and aspartate aminotransferase; assay: Serum liver enzymes (blood parameters) in intoxicated animals; format: in vivo, mouse; conditions: compared to intoxicated control group
[9] = tested on: paracetamol-intoxicated mice livers
Protocol: Mice (8 weeks old) are fed a standard diet. Paracetamol is administered by oral gavage (500 mg/kg of animal). Carprofen is given by intraperitoneal injection (three times every 24 hours) in combination with 0.1% DDC which is included in the diet.
Mice are sacrified at different time-points of intoxication by cervical dislocation and the livers are either immediately snap-frozen in methylbutane precooled with liquid nitrogen for immunofluorescence or fixed in 4% buffered formaldehyde for routine histology and immunohistochemistry.
To evaluate the impact of the antioxidants according to the invention on regression of morphological alterations in early stages of paracetamol-intoxicated mice livers, a group of animals are treated on day one with MitoQ (a mixture of MitoQuinol [10-(3,6-dihydroxy-4,5-dimethoxy-2 methylphenyl)decyl]triphenylphosphonium bromide and MitoQuinone [10-(4,5-dimethoxy-2-methyl-3,6-dioxo-1,4-cyclohexadien-1-yl)decyl]-triphenylphosphonium bromide (provided by Prof. Albin Hermetter, TU Graz, AT), diluted with PBS/1% DMSO in three different concentrations (200 nM, 300 nM and 400 nM) intraperitoneally with maximum administration volume 100 μl (controls receive 100 μl PBS/1% DMSO only). For injections, MitoQ is dissolved in PBS supplemented with sufficient DMSO (preferably 1%) to maintain solubility of antioxidants. Intraperitoneal or i.v. (tail vein) injections are given to pairs of mice and compared with vehicle-injected controls. These correspond to maximum tolerated dose of 20 mg of MitoQ/kg/day (750 nmol) according to Smith R. A. J et al., 2003, PNAS, 100 (9): 5407-5412.
On the second day MitoQ treatment is continued, additionally mice are intoxicated with 500 mg/kg paracetamol diluted with PBS po (maximum administration volume is 300 μl).

[10] = tested on: DDC-intoxicated mouse liver; assay: Hepatocyte damage in mouse liver upon 3 days exposure to DDC (0.1%), MitoQ versus vitamin E (histology); conditions: MitoQ 12 mg/kg peritoneally, vitamin E 100 mg/kg subcutaneously
Protocol: FIGS. 3a and 3b: Comparison of MitoQ (12 mg/kg of animal;given peritoneally) and vitamin E (100 mg/kg of animal, applied subcutneously) effect on the degree of hepatocyte damage in mouse liver upon short term (3 days) exposure to DDC (0.1%)
Controls receive 300 μPBS only. Vitamin E is given subcutaneously in the same intervals as MitoQ at doses of 40 to 100 mg/kg dissolved in corn oil/PBS (1:5).

[11] = concentration used for treatment of intoxicated immortalized hepatocytes, read-out: EC50
[12] = paracetamol 500 mg/kg, 1 day, MitoQ 300 nmol/animal in PBS/1% DMSO, simultaneous, 24 hours pretreatment

With `CCOC(=O)C1=C(C)NC(C)=C(C(=O)OCC)C1C` [DDC] the EC50 ([1]; intoxicant, hepatocytes incubated up to 72 hours in culture medium (DMEM and 10% FCS)) was 50 μg/ml of medium.

In the case of `Cc1c(C)c2c(c(C)c1O)CCC(C)(CC[P+](c1ccccc1)(c1ccccc1)c1ccccc1)O2` (stereo not drawn) [MitoVit E, [2-(3,4-dihydro-6-hydroxy-2,5,7,8-tetramethyl-2H-1-benzopyran-2-yl)ethyl]-triphenylphosphonium bromide], the accumulation by mitochondria [2] is listed as “rapidly and selectively accumulated”, the maximum tolerated dose ([3]; 500 μM in drinking water) is listed as 60 mg/kg/day and the “gross signs of toxicity” value [3] is listed as “without any gross signs of toxicity”. The “safety of long term feeding to mice” value [3] was “could be fed safely”.

In the case of `C[P+](c1ccccc1)(c1ccccc1)c1ccccc1` [TPMP, reference compound], the “safety of long term feeding to mice” value [3] is listed as “could be fed safely”.

With MitoQ the inflammatory cells [4] was “absent”, the liver morphology [4] was “restores normal liver morpohology” and the “degree of cell damage” value [5] was “greatly reduced”. For the same compound, the HO-1 protein expression ([6]; compared to paracetamol intoxicated group of animals) was “significant reduction”, the HO-1 protein expression ([6]; compared to vitamin E treated mice) was “less significant reduction” and the FABP protein expression [7] was “reaches almost control mice FABP protein expression values; also recorded: reach almost control mice FABP expression values”. For the same compound, the “reduction of liver damage by serum liver enzymes (alanine- and aspartate aminotransferase)” value [8] was “significant reduction”, the EC50 [1, 11] was 1 µM and the ROS formation [1] was “significant reduction”. The accumulation by mitochondria [2] was “rapidly and selectively accumulated”, the “gross signs of toxicity” value [3] was “without any gross signs of toxicity” and the “safety of long term feeding to mice” value [3] was “could be fed safely”. For the same compound, the “blood congestion in the sinusoids” value [9, 12] was “reduces blood congestion in the sinusoids”, the necrotic hepatocytes [9, 12] was “only few single necrotic cells are seen” and the “liver architecture (strands of hepatocytes bordered by sinusoids)” value ([9]; short-term experiments overall (paracetamol; carprofen + DDC), compared to vitamin E or untreated animals) was “is again visible”. The inflammatory cells [10] was “absent”, the liver morphology [10] was “restores normal liver morphology” and the “protoporphyrin accumulation in the bile ducts” value [10] was “persists”.

In the case of vitamin E [reference compound], the “reduction of liver damage by serum liver enzymes (alanine- and aspartate aminotransferase)” value [8] is reported as “less significant effect”, the EC50 [1, 11] is reported as 10 µM and the ROS formation [1] is reported as “significant reduction”. For the same compound, the inflammatory cells [10] was “still present in the periportal area”, the liver morphology [10] was “only partially restores normal liver morphology” and the “protoporphyrin accumulation in the bile ducts” value [10] was “persists”.
